Test results reported in PMC11579541, “In vitro, in vivo, and in silico approaches for evaluating the preclinical DMPK profiles of ammoxetine, a novel chiral serotonin and norepinephrine reuptake inhibitor” (Frontiers in Pharmacology, 2024).
Read-outs that look alike come from different tables or passages of the source.

Experiment: PK studies in beagle dogs
Assay type: in vivo
Settings: for AUC(0-inf) / AUC(0-t) / MRT last / MRT inf / Tmax / half-life / Cmax / CL/F / Vd/F: beagle; for MRT last: read-out: MRT(0-t); for MRT inf: read-out: MRT(0-∞); for half-life: read-out: t1/2z (converted); for CL/F: read-out: CLz/F (converted); for Vd/F: read-out: Vz/F
Method: For the PK studies in rats and dogs, a total of 18 SD rats and 15 male beagle dogs were randomly divided into three groups, with six rats or five dogs per group, respectively. Prior to the experiments, all animals underwent a 12-h fasting period, while having free access to water. The animals were administered single oral doses of ammoxetine in three different dose levels: 8 mg/kg, 20 mg/kg, and 50 mg/kg for rats, and 2 mg/kg, 5 mg/kg, and 12.5 mg/kg for dogs, representing low, medium, and high doses. Serial blood samples were collected from the rats at 0, 2, 5, 15, and 30 min, as well as 1, 2, 4, 6, 8, 12, and 24 h post-dosing. For the dogs, blood samples were collected at 0, 5, 15, 30, and 45 min, as well as 1, 2, 4, 6, 8, 12, and 24 h post-dosing. Approximately 0.3 mL of blood was collected from the rats, while 2 mL of blood was collected from the dogs. The blood samples were collected into heparinized tubes. Following centrifugation, plasma samples were obtained and stored at −30°C until further analysis.
For the absolute bioavailability (F, %) study in dogs, the dogs initially received a single gastric gavage of a low dose (2 mg/kg) of ammoxetine, followed by a 1-week washout period. After the washout, the same dose of ammoxetine was administered intravenously (i.v.). To assess the effects of nonfasting on ammoxetine PK, dogs that received a medium dose (5 mg/kg) of ammoxetine via gastric gavage underwent a radical washout period of 1 week. Subsequently, they were administered the same dose of ammoxetine via gastric gavage under nonfasting conditions. To compare sex differences in ammoxetine PK, an additional five female beagle dogs were administered a medium dose (5 mg/kg) of ammoxetine via gastric gavage after a 12-h overnight fast. Blood samples (2 mL) were collected from these dogs into heparinized tubes at predose and at specified time points: 5, 15, 30, and 45 min, as well as 1, 2, 4, 6, 8, 12, and 24 h postdose. For the repeat-dose study, after completing blood collection during the initial administration, dogs receiving a single gastric gavage of a medium dose (5 mg/kg) of ammoxetine under fasting conditions were subsequently orally dosed with seven repeat doses of ammoxetine (5 mg/kg) every 12 h. Trough blood samples were collected before the fourth to last administration to ensure steady-state blood concentrations (C ss ) were achieved. Approximately 2 mL of blood was collected at specified time points after the last dose and transferred into heparinized tubes. All blood samples were then centrifuged at 4,000 r/min for 20 min to obtain plasma samples, which were stored at −30°C until analysis.
To determine the concentration of ammoxetine, 100 μL of L-phencynonate (IS, 50 ng/mL) and 300 μL of methanol were added to 100 μL of plasma samples from rats or dogs. After thorough vortexing, the mixture was centrifuged at 13,800×g for 10 min. The supernatants were then subjected to analysis using LC-MS-MS methods. PK parameters were calculated using DAS (Drug And Statistics for Windows) version 2.0, developed by the Shanghai University of Traditional Chinese Medicine, Shanghai, China. The F was determined by comparing the plasma area under the concentration-time curve (AUC) values after oral (p.o.) and intravenous (i.v.) administration of ammoxetine. F was calculated using the formula: F=AUCp.o./AUCi.v.×100% . Statistical analyses were performed using OriginPro 8.6 software. Paired sample or student’s t-test, as well as one-way ANOVA, were employed to compare the means of two or three groups, with a significance level set at p < 0.05.

[1] = beagle dogs, 2 mg/kg p.o. vs i.v.
[2] = beagle dogs, 5 mg/kg oral every 12 h, last time of multiple administrations
[3] = dog, plasma, po, 5 mg/kg, beagle dogs, 5 mg/kg oral every 12 h, last time of multiple administrations
[4] = female, dog, plasma, po, 5 mg/kg, female beagle dogs, 5 mg/kg oral, fasted
[5] = male, dog, plasma, iv, 2 mg/kg, beagle dogs, 2 mg/kg intravenous administration
[6] = male, dog, plasma, po, 2 mg/kg, beagle dogs, 2 mg/kg single oral dose
[7] = male, dog, plasma, po, 5 mg/kg, beagle dogs, 5 mg/kg oral every 12 h, last time of multiple administrations
[8] = male, dog, plasma, po, 5 mg/kg, beagle dogs, 5 mg/kg oral, fed (nonfasting)
[9] = male, dog, plasma, po, 5 mg/kg, male beagle dogs, 5 mg/kg single oral dose, fasted (first dose)
[10] = male, dog, plasma, po, 12.5 mg/kg, beagle dogs, 12.5 mg/kg single oral dose

## CNCC[C@H](Oc1cccc2c1OCO2)c1cccs1 [ammoxetine]
[1]
  F (absolute bioavailability) based on AUC(0-t): 41.76 ± 9.25%
  F (absolute bioavailability) based on AUC(0-∞): 41.94 ± 9.31%
Beagle dogs, 5 mg/kg oral every 12 h, before the 4th dose
  trough concentration: 84.17 ± 50.58 ng/mL
Beagle dogs, 5 mg/kg oral every 12 h, before the 5th dose
  trough concentration: 64.21 ± 31.71 ng/mL
Beagle dogs, 5 mg/kg oral every 12 h, before the 6th dose
  trough concentration: 86.13 ± 43.95 ng/mL
Beagle dogs, 5 mg/kg oral every 12 h, before the 7th dose
  trough concentration: 95.71 ± 39.83 ng/mL
[2]
  Cav: 337.19 ± 112.27 ng/mL
  Cmin: 95.71 ± 39.83 ng/mL
  DF (degree of fluctuation): 2.00 ± 0.45
[3]
  AUC(0-inf): 5000 ng·h/mL
  AUC(0-t): 4900 ng·h/mL
  MRT last: 5.76 ± 0.6 h
  MRT inf: 6.21 ± 0.73 h
  half-life: 4.13 ± 0.85 h
dog, plasma, po, 5 mg/kg, beagle dogs, 5 mg/kg oral every 12 h, last time of multiple administrations, read-out: Tmax
  Tmax: 1.1 ± 0.52 h
dog, plasma, beagle dogs, 5 mg/kg oral every 12 h, last time of multiple administrations
  AUC: 4050 ng·h/mL
[4]
  AUC(0-inf): 1660 ng·h/mL
  AUC(0-t): 1640 ng·h/mL
  Cmax: 476 ± 284 ng/mL
  CL/F: 71.5 mL/min/kg
  MRT last: 3.74 ± 0.78 h
  MRT inf: 3.88 ± 0.83 h
  Vd/F: 20.9 ± 12.3 L/kg
  half-life: 3.45 ± 0.4 h
female, dog, plasma, po, 5 mg/kg, female beagle dogs, 5 mg/kg oral, fasted, read-out: Tmax
  Tmax: 0.85 ± 0.22 h
[5]
  AUC(0-inf): 1010 ng·h/mL
  AUC(0-t): 1010 ng·h/mL
  Cmax: 649 ± 119 ng/mL
  MRT last: 2.3 ± 0.29 h
  MRT inf: 2.33 ± 0.29 h
  half-life: 2.72 ± 0.51 h
male, dog, plasma, iv, 2 mg/kg, beagle dogs, 2 mg/kg intravenous administration, read-out: Tmax
  Tmax: 0.05 ± 0.03 h
[6]
  AUC(0-inf): 420 ± 108 ng·h/mL
  AUC(0-t): 418 ± 108 ng·h/mL
  Cmax: 165 ± 49.5 ng/mL
  CL/F: 83.5 mL/min/kg
  MRT last: 2.94 ± 0.55 h
  MRT inf: 3.08 ± 0.69 h
  Vd/F: 24.9 ± 13 L/kg
  half-life: 3.4 ± 1.28 h
male, dog, plasma, po, 2 mg/kg, beagle dogs, 2 mg/kg single oral dose, read-out: Tmax
  Tmax: 0.75 ± 0.18 h
[7]
  Cmax: 761 ± 254 ng/mL
  CL/F: 18.7 mL/min/kg
  Vd/F: 6.63 ± 2.77 L/kg
[8]
  AUC(0-inf): 1960 ± 742 ng·h/mL
  AUC(0-t): 1950 ± 738 ng·h/mL
  Cmax: 522 ± 234 ng/mL
  CL/F: 49.3 mL/min/kg
  MRT last: 4.14 ± 0.54 h
  MRT inf: 4.28 ± 0.59 h
  Vd/F: 14 ± 6.8 L/kg
  half-life: 3.28 ± 0.28 h
male, dog, plasma, po, 5 mg/kg, beagle dogs, 5 mg/kg oral, fed (nonfasting), read-out: Tmax
  Tmax: 0.8 ± 0.21 h
[9]
  AUC(0-inf): 1980 ± 533 ng·h/mL
  AUC(0-t): 1960 ± 527 ng·h/mL
  Cmax: 524 ± 214 ng/mL
  CL/F: 45.2 mL/min/kg
  MRT last: 4.4 ± 0.65 h
  MRT inf: 4.7 ± 0.85 h
  Vd/F: 14.9 ± 5.08 L/kg
  half-life: 3.81 ± 0.52 h
male, dog, plasma, po, 5 mg/kg, male beagle dogs, 5 mg/kg single oral dose, fasted (first dose), read-out: Tmax
  Tmax: 0.8 ± 0.11 h
[10]
  AUC(0-inf): 8400 ng·h/mL
  AUC(0-t): 7900 ng·h/mL
  Cmax: 1470 ng/mL
  CL/F: 25.8 mL/min/kg
  MRT last: 5.43 ± 1.18 h
  MRT inf: 7.53 ± 4.7 h
  Vd/F: 13.9 ± 11 L/kg
  half-life: 6.2 ± 4.43 h
male, dog, plasma, po, 12.5 mg/kg, beagle dogs, 12.5 mg/kg single oral dose, read-out: Tmax
  Tmax: 1.4 ± 0.6 h
male, dog, plasma, po, 12.5 mg/kg, beagle dogs, oral 2, 5 and 12.5 mg/kg, read-out: Tmax values, range
  Tmax: 0.75 to 1.4 h
male, dog, plasma, oral, beagle dogs, 2 mg/kg, approximate value, read-out: absolute bioavailability
  bioavailability: ~42%
male, dog, plasma, beagle dogs, 2 mg/kg intravenous administration, total clearance, read-out: CLz (converted)
  clearance: 34 mL/min/kg
male, dog, plasma, beagle dogs, 2 mg/kg intravenous administration, volume of distribution, read-out: Vz
  Vd: 7.82 ± 1.2 L/kg
